Measurements taken from the supplement of paper PMC10307832.

How the values were obtained:
Assay in all cases: relative viability (nuclei count vs DMSO), 5 days (fraction); higher = more cells survive
[1] = compound: CC[C@H](Nc1ncnc2[nH]cnc12)c1nc2cccc(F)c2c(=O)n1-c1ccccc1 [Idelalisib] + CC1(C)CCC(c2ccc(Cl)cc2)=C(CN2CCN(c3ccc(C(=O)NS(=O)(=O)c4ccc(N[C@H](CCN5CCOCC5)CSc5ccccc5)c(S(=O)(=O)C(F)(F)F)c4)cc3)CC2)C1 [Navitoclax] (partner 0.5 µM)
Summary of the method: (§1)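 Relative viability was taken as the ratio of nuclei in treated wells to nuclei in vehicle wells. Lung cancer cell lines in 1536-well plates received compounds by pin tool one day after seeding, either one drug alone or a fixed anchor-drug dose plus five library-drug doses (not always all listed) in √10 steps. Nuclei were counted on 4× images after 5 days of treatment, and values are medians of duplicate plates.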

[2] = compound: CC[C@H](Nc1ncnc2[nH]cnc12)c1nc2cccc(F)c2c(=O)n1-c1ccccc1 [Idelalisib] + Cc1cc(Nc2cc(N3CCN(C)CC3)nc(Sc3ccc(NC(=O)C4CC4)cc3)n2)n[nH]1 [Tozasertib] (partner 0.1 µM)
Summary of the method: as §1

[3] = compound: CC[C@H](Nc1ncnc2[nH]cnc12)c1nc2cccc(F)c2c(=O)n1-c1ccccc1 [Idelalisib] + N=C(N)NC(=N)NCCc1ccccc1 [Phenformin] (partner 250 µM)
Summary of the method: as §1

[4] = compound: Nc1nc2[nH]cc(CCc3ccc(C(=O)N[C@@H](CCC(=O)O)C(=O)O)cc3)c2c(=O)[nH]1 [Pemetrexed] + CC(C)C[C@H](NC(=O)[C@H](Cc1ccccc1)NC(=O)c1cnccn1)B(O)O [Bortezomib] (partner 0.002 µM)
Summary of the method: as §1

Row | Cell Line | relative viability ([1]; first compound 0.04 µM) | relative viability ([1]; first compound 0.1265 µM) | relative viability ([1]; first compound 0.4 µM) | relative viability ([1]; first compound 1.265 µM) | relative viability ([1]; first compound 4 µM) | relative viability ([2]; first compound 0.04 µM) | relative viability ([2]; first compound 0.1265 µM) | relative viability ([2]; first compound 0.4 µM) | relative viability ([2]; first compound 1.265 µM) | relative viability ([2]; first compound 4 µM) | relative viability ([3]; first compound 0.04 µM) | relative viability ([3]; first compound 0.1265 µM) | relative viability ([3]; first compound 0.4 µM) | relative viability ([3]; first compound 1.265 µM) | relative viability ([3]; first compound 4 µM) | relative viability ([4]; first compound 0.002 µM) | relative viability ([4]; first compound 0.006325 µM) | relative viability ([4]; first compound 0.02 µM) | relative viability ([4]; first compound 0.06325 µM) | relative viability ([4]; first compound 0.2 µM)
1 | NCI-H2405 | 1.01 | 0.759 | 0.716 | 0.766 | 0.622 | 0.841 | 0.864 | 0.671 | 0.762 | 0.672 | 0.451 | 0.37 | 0.322 | 0.355 | 0.35 | 0.983 | 0.974 | 1.05 | 0.986 | 0.96
2 | NCI-H3122 | 1.07 | 1.04 | 1.02 | 0.995 | 0.961 | 0.377 | 0.372 | 0.41 | 0.4 | 0.399 | 0.389 | 0.371 | 0.403 | 0.41 | 0.388 | 1.02 | 1.02 | 0.899 | 0.99 | 0.877
3 | PC-3 [JPC-3] | 0.912 | 0.892 | 0.795 | 0.668 | 0.679 | 0.966 | 0.913 | 0.853 | 0.901 | 0.715 | 0.454 | 0.484 | 0.477 | 0.451 | 0.42 | 0.66 | 0.74 | 0.925 | 0.854 | 0.772
